{"source": "paper PMC9181852", "about": "“In Vivo and In Vitro Biological Evaluation and Molecular Docking Studies of Compounds Isolated from Micromeria biflora (Buch. Ham. ex D.Don) Benth” (Molecules, 2022)", "key": {"[1]": {"test": "Open field sedative test", "type": "in vivo, mice (Balb/c)", "conditions": "30 min after administration", "experimental": "(§1) Healthy mice (Balb/c) with weight ranging from 20 to 22 g and ages 9 to 10 weeks were used in this screening model. The grown animals were provided with standard laboratory conditions such as standard food and water ad libitum. The in vivo biological screening test was performed at the Department of Veterinary Medicine, College of Agriculture and Veterinary Medicine, Qassim University Buraydah, Saudi Arabia, as well as Swabi University, KP, Pakistan, according to published procedures.\nThe sedative potential of salicylalazine isolated from M. biflora was assessed as per the reported procedure. The animals were divided into different groups, as designated above. The apparatuses used in this screening contained an area of white wood with a 150 cm diameter bordered by stainless steel walls and was separated into 19 squares by black lines. Then, the open field apparatus was positioned inside the light and sound-reduced room. The different groups of animals were administered distilled water, diazepam, and salicylalazine at different doses. Thirty minutes after administration, all groups of animals were permitted to move from the center of the design box. […] Statistical calculations were performed by counting the number of lines crossed by every animal."}, "[2]": {"test": "Histamine-induced paw edema", "type": "in vivo, mice", "experimental": "as §1\nThe anti-inflammatory potential of salicylalazine isolated from M. biflora was determined as per our recently published method. The induction of inflammation was completed by administering 0.1 mL histamine (0.5%) to the animal’s sub plantar region. The volume of the paw was recorded 1–5 h after the administration of the inflammatory drug. Then, every group of animals was divided and pretreated orally with salicylalazine (15 and 20 mg/kg) for 1 h before making paw edema. The effect of the drug was related to that of loratadine (standard)."}, "[3]": {"system": "mouse hepatocytes", "test": "Cytotoxicity MTT assay, mouse hepatocytes", "type": "cell-based", "experimental": "Salicylalazine isolated from M. biflora was also screened for in vitro cytotoxicity using mouse hepatocytes and LCMK-2 monkey kidney cells. According to the MTT assay, salicylalazine was incubated for 24 h and the viability of the cell was identified. In this screening test, the cells were kept in RPMI 1640 medium as per the reported method. The medium used in this experiment consisted of streptomycin sulfate, NaHCO3 solution, and penicillin sodium salt, and FBS in proper proportion. The initial seeding of 8.6 × 10^3 mice hepatocytes and 7.1 × 10^3 LCMK-2 cells was indicated in 96 well plates. The cells were preserved with salicylalazine at different concentrations, and vehicle (0.2% DMSO), and hatching was performed for […] by MTT following our previously reported method."}, "[4]": {"test": "Traction muscle relaxation model", "type": "in vivo, mice (Balb/c)", "experimental": "as §1\nA traction screening model was adapted to identify the relaxation of muscle for salicylalazine isolated from M. biflora according to the standard method. The traction model was considered by using metallic wires covered with rubber, and then the wires were linked with each other using a stand around 60 cm upstairs of the lab bench. The animals were distributed into different groups, with each group comprising six animals (n = 6). The various groups of animals were administered water, diazepam, and salicylalazine at different doses. After administration, all groups of animals were subjected to traction screening after 30, 60, and 90 min. […] Traction testing was repeatedly performed to calculate the muscle relaxant ability of salicylalazine as per the reported method."}, "[5]": {"test": "Carrageenan-induced paw edema", "type": "in vivo, mice", "experimental": "as §1\nThis model was used to identify the anti-inflammatory potency of salicylalazine purified from M. biflora according to the standard method. The animals were randomly distributed into different groups depending on the treatment. Group I was treated with distilled water (10 mL/kg), which acted as a negative control. […] After 30 min of the intraperitoneal subjection of the mentioned administrations, 1% carrageen (0.05 mL) was […] administrated in the right paw of each animal. The inflammation in every animal was recoded after 1–5 h of carrageenan treatment using a plethysmometer (LE 7500 plan lab S.L). The anti-inflammatory action of salicylalazine was measured using the following formula: Activity %=A−B /A×100 where A is the paw edema of the control group, and B is the paw edema of the screening group."}}}
{"molecule": "Oc1ccccc1/C=N/N=C/c1ccccc1O", "note": "[Salicylalazine, salicylalazine]", "values": [{"measurement": "No of Lines Crossed", "setting": "[1]; dose 2.5 mg/kg", "result": "78.54 ± 0.98"}, {"measurement": "No of Lines Crossed", "setting": "[1]; dose 5 mg/kg", "result": "69.98 ± 1.22"}, {"measurement": "No of Lines Crossed", "setting": "[1]; dose 10 mg/kg", "result": "60.90 ± 1.00"}, {"measurement": "No of Lines Crossed", "setting": "[1]; dose 15 mg/kg", "result": "51.09 ± 0.97"}, {"measurement": "No of Lines Crossed", "setting": "[1]; dose 20 mg/kg", "result": "40.98 ± 0.80"}, {"measurement": "Effect on histamine-induced paw edema", "setting": "[2]; 15 mg/kg, 1 h", "result": 78.45, "unit": "%"}, {"measurement": "Effect on histamine-induced paw edema", "setting": "[2]; 15 mg/kg, 2 h", "result": 74.33, "unit": "%"}, {"measurement": "Effect on histamine-induced paw edema", "setting": "[2]; 15 mg/kg, 3 h", "result": 58.09, "unit": "%"}, {"measurement": "Effect on histamine-induced paw edema", "setting": "[2]; 20 mg/kg, 1 h", "result": 90.55, "unit": "%"}, {"measurement": "Effect on histamine-induced paw edema", "setting": "[2]; 20 mg/kg, 2 h", "result": 93.99, "unit": "%"}, {"measurement": "Effect on histamine-induced paw edema", "setting": "[2]; 20 mg/kg, 3 h", "result": 86.11, "unit": "%"}, {"measurement": "In vitro cytotoxicity (MTT)", "setting": "[3]", "result": "did not exhibit any considerable cytotoxicity"}, {"measurement": "Traction Test (%)", "setting": "[4]; dose 2.5 mg/kg, 30 min", "result": "21.23 ± 1.55", "unit": "%"}, {"measurement": "Traction Test (%)", "setting": "[4]; dose 2.5 mg/kg, 60 min", "result": "27.78 ± 2.10", "unit": "%"}, {"measurement": "Traction Test (%)", "setting": "[4]; dose 2.5 mg/kg, 90 min", "result": "28.65 ± 1.02", "unit": "%"}, {"measurement": "Traction Test (%)", "setting": "[4]; dose 5 mg/kg, 30 min", "result": "28.12 ± 1.60", "unit": "%"}, {"measurement": "Traction Test (%)", "setting": "[4]; dose 5 mg/kg, 60 min", "result": "34.56 ± 2.07", "unit": "%"}, {"measurement": "Traction Test (%)", "setting": "[4]; dose 5 mg/kg, 90 min", "result": "35.34 ± 2.00", "unit": "%"}, {"measurement": "Traction Test (%)", "setting": "[4]; dose 10 mg/kg, 30 min", "result": "34.99 ± 1.70", "unit": "%"}, {"measurement": "Traction Test (%)", "setting": "[4]; dose 10 mg/kg, 60 min", "result": "39.45 ± 2.12", "unit": "%"}, {"measurement": "Traction Test (%)", "setting": "[4]; dose 10 mg/kg, 90 min", "result": "40.66 ± 1.88", "unit": "%"}, {"measurement": "Traction Test (%)", "setting": "[4]; dose 15 mg/kg, 30 min", "result": "45.78 ± 1.88", "unit": "%"}, {"measurement": "Traction Test (%)", "setting": "[4]; dose 15 mg/kg, 60 min", "result": "52.98 ± 2.15", "unit": "%"}, {"measurement": "Traction Test (%)", "setting": "[4]; dose 15 mg/kg, 90 min", "result": "52.32 ± 2.04", "unit": "%"}, {"measurement": "Traction Test (%)", "setting": "[4]; dose 20 mg/kg, 30 min", "result": "53.72 ± 1.89", "unit": "%"}, {"measurement": "Traction Test (%)", "setting": "[4]; dose 20 mg/kg, 60 min", "result": "60.56 ± 2.13", "unit": "%"}, {"measurement": "Traction Test (%)", "setting": "[4]; dose 20 mg/kg, 90 min", "result": "61.32 ± 2.06", "unit": "%"}, {"measurement": "Attenuation of carrageenan-induced paw edema (maximum)", "setting": "[5]; 15 mg/kg, after 3 h", "result": 80.98, "unit": "%"}, {"measurement": "Inhibition of carrageenan-induced paw edema (maximum)", "setting": "[5]; 20 mg/kg, 3 h after carrageenan", "result": 90.22, "unit": "%"}, {"measurement": "Inhibition of carrageenan-induced paw edema", "setting": "[5]; 20 mg/kg, after 1 h", "result": 45.11, "unit": "%"}]}
